Assay results reported in the supplement of paper PMC4862054.
“And” between values parts separate entries of the source, which are not always exact repeats. Equal values may be shown once.

Experiments:
Details in all cases: incubation time: 72 h
CAL-85-1 [1] = assay: normalised viability (% of control), CellTiter-Blue; higher = more viable cells (about 100 = DMSO control)
Method: (§1)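 DSRT, CellTiter-Blue viability, 72 h incubation. Signal is normalised to DMSO and benzethonium chloride controls. Value is the normalised response at dose 6.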

CAL-148 [2] = assay: as above
Method: as §1

DU-4475 [3] = assay: as above
Method: as §1

CAL-51 [4] = assay: as above
Method: as §1

MDA-MB-453 [5] = assay: as above
Method: as §1

HDQ-P1 [6] = assay: as above
Method: as §1

Hs578T [7] = assay: normalised response (% of control), CellTiter-Glo; higher = more viable cells (100 = DMSO, 0 = benzethonium chloride kill control)
Method: (§2)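 DSRT, 72 h incubation, CellTox Green / CellTiter-Glo readout. Signal is normalised to DMSO and benzethonium chloride controls. Value is the normalised response at the highest dose.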

CAL-85-1 [8] = assay: as above
Method: as §2

CAL-148 [9] = assay: as above
Method: as §2

SK-BR-3 = assay: as above
Method: as §2

MDA-MB-436 [10] = assay: as above
Method: as §2

MFM-223 [11] = assay: as above
Method: as §2

CAL-120 [12] = assay: as above
Method: as §2

DU-4475 [13] = assay: as above
Method: as §2

BT-549 [14] = assay: as above
Method: as §2

CAL-51 [15] = assay: as above
Method: as §2

BT-474 [16] = assay: as above
Method: as §2

HCC1143 [17] = assay: as above
Method: as §2

MDA-MB-453 [18] = assay: as above
Method: as §2

MDA-MB-468 [19] = assay: as above
Method: as §2

HDQ-P1 [20] = assay: as above
Method: as §2

MCF-10A [21] = assay: as above
Method: as §2

HCC1599 [22] = assay: as above
Method: as §2

HCC1937 [23] = assay: as above
Method: as §2

MDA-MB-231 [24] = assay: as above
Method: as §2

Hs578T [25] = assay: normalised response (% of control), CellTox Green; higher = less cell death (100 = DMSO, 0 = benzethonium chloride kill control)
Outline: (§3)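 Compound was dispensed into 384-well plates at 5 concentrations in 10-fold steps spanning a 10,000-fold range specific to that compound. Breast cancer cell lines were added as 20 µl suspension and left for 72 h before CellTox Green fluorescence (485/520 nm) and then CellTiter-Glo luminescence, read after 10 min at room temperature. Each reported value is the normalised signal at one concentration, with 0.1 % DMSO set at 100 and a positive kill control at 0 on each plate.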

CAL-85-1 [26] = assay: as above
Outline: as §3

CAL-148 [27] = assay: as above
Outline: as §3

MDA-MB-436 [28] = assay: as above
Outline: as §3

MFM-223 [29] = assay: as above
Outline: as §3

CAL-120 [30] = assay: as above
Outline: as §3

DU-4475 [31] = assay: as above
Outline: as §3

BT-549 [32] = assay: as above
Outline: as §3

CAL-51 [33] = assay: as above
Outline: as §3

BT-474 [34] = assay: as above
Outline: as §3

HCC1143 [35] = assay: as above
Outline: as §3

MDA-MB-453 [36] = assay: as above
Outline: as §3

MDA-MB-468 [37] = assay: as above
Outline: as §3

HDQ-P1 [38] = assay: as above
Outline: as §3

MCF-10A [39] = assay: as above
Outline: as §3

HCC1599 [40] = assay: as above
Outline: as §3

HCC1937 [41] = assay: as above
Outline: as §3

MDA-MB-231 [42] = assay: as above
Outline: as §3

CC(=O)c1c(C)c2cnc(Nc3ccc(N4CCNCC4)cn3)nc2n(C2CCCC2)c1=O (300 nM)
normalised viability (CAL-85-1 [1]): 89.8%
normalised viability (CAL-148 [2]): 102%
normalised viability (DU-4475 [3]): 102%
normalised viability (CAL-51 [4]): 81.1%
normalised viability (MDA-MB-453 [5]): 74.3%
normalised viability (HDQ-P1 [6]): 52.7%

Cn1cc(C2=Nc3cc(NC(=O)C(N)C4CCCCC4)cc4c3C2=CNNC4=O)cn1 (stereo not given) (300 nM)
normalised viability (CAL-85-1 [1]): 66.1%
normalised viability (CAL-148 [2]): 84%
normalised viability (DU-4475 [3]): 84.3%
normalised viability (CAL-51 [4]): 93.9%
normalised viability (MDA-MB-453 [5]): 34.9%
normalised viability (HDQ-P1 [6]): 58.7%

COc1cc2c(cc1O)CC[C@@H]1[C@@H]2CC[C@]2(C)[C@@H](O)CC[C@@H]12 [2-methoxyestradiol] (300 nM)
normalised viability (CAL-85-1 [1]): 99%
normalised viability (CAL-148 [2]): 97%
normalised viability (DU-4475 [3]): 90.8%
normalised viability (CAL-51 [4]): 110%
normalised viability (MDA-MB-453 [5]): 81.3%
normalised viability (HDQ-P1 [6]): 72.2%

Cc1sc2c(c1C)C(c1ccc(Cl)cc1)=N[C@@H](CC(=O)OC(C)(C)C)c1nnc(C)n1-2 [(+)JQ1] (300 nM)
normalised viability (CAL-85-1 [1]): 64.2%
normalised viability (CAL-148 [2]): 73.8%
normalised viability (DU-4475 [3]): 57.6%
normalised viability (CAL-51 [4]): 98.1%
normalised viability (MDA-MB-453 [5]): 34.8%
normalised viability (HDQ-P1 [6]): 62.9%

Oc1ncnc2[nH]ncc12 [Allopurinol] (300 nM)
normalised viability (CAL-85-1 [1]): 104%
normalised viability (CAL-148 [2]): 113%
normalised viability (DU-4475 [3]): 91.6%
normalised viability (CAL-51 [4]): 93.3%
normalised viability (MDA-MB-453 [5]): 101%
normalised viability (HDQ-P1 [6]): 73.6%

O=C1CN2Cc3c(ccc(Cl)c3Cl)N=C2N1 [Anagrelide] (300 nM)
normalised viability (CAL-85-1 [1]): 94.4%
normalised viability (CAL-148 [2]): 107%
normalised viability (DU-4475 [3]): 94.7%
normalised viability (CAL-51 [4]): 77.6%
normalised viability (MDA-MB-453 [5]): 111%
normalised viability (HDQ-P1 [6]): 80.3%

Nc1ncn([C@@H]2O[C@H](CO)[C@@H](O)[C@H]2O)c(=O)n1 [Azacitidine] (300 nM)
normalised viability (CAL-85-1 [1]): 93.1%
normalised viability (CAL-148 [2]): 95.3%
normalised viability (DU-4475 [3]): 90%
normalised viability (CAL-51 [4]): 104%
normalised viability (MDA-MB-453 [5]): 91.9%
normalised viability (HDQ-P1 [6]): 84.5%

O=NN(CCCl)C(=O)NCCCl [Carmustine] (300 nM)
normalised viability (CAL-85-1 [1]): 94.2%
normalised viability (CAL-148 [2]): 101%
normalised viability (DU-4475 [3]): 77.4%
normalised viability (CAL-51 [4]): 108%
normalised viability (MDA-MB-453 [5]): 110%
normalised viability (HDQ-P1 [6]): 79.4%

CC1=C2C[C@H]3[C@@H](CC=C4C[C@@H](O)CC[C@@]43C)[C@@H]2CC[C@]12O[C@@H]1C[C@H](C)CN[C@H]1[C@H]2C [Cyclopamine] (300 nM)
normalised viability (CAL-85-1 [1]): 106%
normalised viability (CAL-148 [2]): 115%
normalised viability (DU-4475 [3]): 105%
normalised viability (CAL-51 [4]): 115%
normalised viability (MDA-MB-453 [5]): 113%
normalised viability (HDQ-P1 [6]): 79.2%

CC(=O)O[C@@]12CO[C@@H]1C[C@H](O)[C@@]1(C)C(=O)[C@H](O)C3=C(C)[C@@H](OC(=O)[C@H](O)[C@@H](NC(=O)OC(C)(C)C)c4ccccc4)C[C@@](O)([C@@H](OC(=O)c4ccccc4)[C@H]21)C3(C)C [Docetaxel] (30 nM)
normalised viability (CAL-85-1 [1]): 30.6% and 27.1%
normalised viability (CAL-148 [2]): 18.9% and 14.9%
normalised viability (DU-4475 [3]): 19.6% and 16.1%
normalised viability (CAL-51 [4]): 25.8% and 20.6%
normalised viability (MDA-MB-453 [5]): 27.2% and 26.1%
normalised viability (HDQ-P1 [6]): 23.5% and 31.8%

C[C@]12CC[C@@H]3c4ccc(OC(=O)N(CCCl)CCCl)cc4CC[C@H]3[C@@H]1CC[C@@H]2O [Estramustine] (29.7 nM)
normalised viability (CAL-85-1 [1]): 97.2%
normalised viability (CAL-148 [2]): 116%
normalised viability (DU-4475 [3]): 71.4%
normalised viability (CAL-51 [4]): 79.1%
normalised viability (MDA-MB-453 [5]): 97.2%
normalised viability (HDQ-P1 [6]): 95.3%

CC1(C)CNc2cc(NC(=O)c3cccnc3NCc3ccncc3)ccc21 [Motesanib] (300 nM)
normalised viability (CAL-85-1 [1]): 78.1%
normalised viability (CAL-148 [2]): 98.8%
normalised viability (DU-4475 [3]): 95.9%
normalised viability (CAL-51 [4]): 103%
normalised viability (MDA-MB-453 [5]): 86.5%
normalised viability (HDQ-P1 [6]): 62.8%

C[C@]1(O)C[C@@H](c2nc(-c3ccc4ccc(-c5ccccc5)nc4c3)c3c(N)nccn32)C1 [OSI-906] (300 nM)
normalised viability (CAL-85-1 [1]): 87.2%
normalised viability (CAL-148 [2]): 89.2%
normalised viability (DU-4475 [3]): 91.5%
normalised viability (CAL-51 [4]): 91.5%
normalised viability (MDA-MB-453 [5]): 87%
normalised viability (HDQ-P1 [6]): 49.8%

CC[C@@H]1C(=O)OC[C@@H]1Cc1cncn1C [Pilocarpine] (1200 nM)
normalised viability (CAL-85-1 [1]): 100%
normalised viability (CAL-148 [2]): 101%
normalised viability (DU-4475 [3]): 88.2%
normalised viability (CAL-51 [4]): 97.6%
normalised viability (MDA-MB-453 [5]): 105%
normalised viability (HDQ-P1 [6]): 113%

COc1cc(F)c(F)c(Nc2ccc(I)cc2F)c1NS(=O)(=O)C1(C[C@H](O)CO)CC1 [RDEA119] (300 nM)
normalised viability (CAL-85-1 [1]): 72.8%
normalised viability (CAL-148 [2]): 82.6%
normalised viability (DU-4475 [3]): 1.76%
normalised viability (CAL-51 [4]): 74.9%
normalised viability (MDA-MB-453 [5]): 80.8%
normalised viability (HDQ-P1 [6]): 58.7%

COc1cc(F)c(F)c(Nc2ccc(I)cc2F)c1NS(=O)(=O)C1(C[C@H](O)CO)CC1 [Refametinib] (10000 nM)
normalised response (Hs578T [7]): 55.1%
normalised response (CAL-85-1 [8]): 23.8%
normalised response (CAL-148 [9]): 65.8%
normalised response (SK-BR-3): 77.2%
normalised response (MDA-MB-436 [10]): 54.8%
normalised response (MFM-223 [11]): 41%
normalised response (CAL-120 [12]): 55.7%
normalised response (DU-4475 [13]): 0.11%
normalised response (BT-549 [14]): 65.7%
normalised response (CAL-51 [15]): 92.5%
normalised response (BT-474 [16]): 47.8%
normalised response (HCC1143 [17]): 67.3%
normalised response (MDA-MB-453 [18]): 82.7%
normalised response (MDA-MB-468 [19]): 45.2%
normalised response (HDQ-P1 [20]): 43.6%
normalised response (MCF-10A [21]): 25%
normalised response (HCC1599 [22]): 102%
normalised response (HCC1937 [23]): 58.5%
normalised response (MDA-MB-231 [24]): 43.7%
normalised response (Hs578T [25]): 97.8%
normalised response (CAL-85-1 [26]): -0.94%
normalised response (CAL-148 [27]): 75.8%
normalised response (MDA-MB-436 [28]): 95.6%
normalised response (MFM-223 [29]): 97.9%
normalised response (CAL-120 [30]): 92%
normalised response (DU-4475 [31]): 69.6%
normalised response (BT-549 [32]): 101%
normalised response (CAL-51 [33]): 101%
normalised response (BT-474 [34]): 99.6%
normalised response (HCC1143 [35]): 106%
normalised response (MDA-MB-453 [36]): 102%
normalised response (MDA-MB-468 [37]): -53.7%
normalised response (HDQ-P1 [38]): 82.1%
normalised response (MCF-10A [39]): 65.8%
normalised response (HCC1599 [40]): 107%
normalised response (HCC1937 [41]): 88.4%
normalised response (MDA-MB-231 [42]): 64.1%

CC(C)(C)c1cnc(CSc2cnc(NC(=O)C3CCNCC3)s2)o1 [SNS-032] (300 nM)
normalised viability (CAL-85-1 [1]): 9.41%
normalised viability (CAL-148 [2]): 7.44%
normalised viability (DU-4475 [3]): 27.9%
normalised viability (CAL-51 [4]): 74%
normalised viability (MDA-MB-453 [5]): 18.9%
normalised viability (HDQ-P1 [6]): 10.2%

Cn1cnc2c(F)c(Nc3ccc(Br)cc3Cl)c(C(=O)NOCCO)cc21 [Selumetinib] (300 nM)
normalised viability (CAL-85-1 [1]): 83.4%
normalised viability (CAL-148 [2]): 89.6%
normalised viability (DU-4475 [3]): 7.86%
normalised viability (CAL-51 [4]): 95.1%
normalised viability (MDA-MB-453 [5]): 121%
normalised viability (HDQ-P1 [6]): 41.9%

Nc1nc2[nH]cnc2c(=S)[nH]1 [Thioguanine] (300 nM)
normalised viability (CAL-85-1 [1]): 93.3%
normalised viability (CAL-148 [2]): 99%
normalised viability (DU-4475 [3]): 100%
normalised viability (CAL-51 [4]): 102%
normalised viability (MDA-MB-453 [5]): 107%
normalised viability (HDQ-P1 [6]): 75.6%
